Source: PubChem BioAssay AID2060906 (Molecular Pharmacology Branch, DTP, NCI, 2025)

Test system: 485176-168-R4-J1-PDC complex spheroid growth
Experiment: Anticancer human tumor 485176-168-R4-J1-PDC patient-derived pancreatic adenocarcinoma cell line growth inhibition [RAS]
Conditions: for IC50: curve of first compound; for viability, T/C: stronger effect = lower value; active = viability on the fitted dose curve at most 10% of control; inactive = the rest
Procedure, shortened: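 Agents were tested in combination matrices in half-log decrements from a top concentration at or near clinical Cmax (10 microM if undetermined). Targets were multi-cell spheroids of tumour lines plus HUVEC and MSC stromal cells.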
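Also: spheroids exposed to compounds for seven days before readout.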
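For viability, T/C in this document: luminescence viability expressed relative to DMSO vehicle wells set as 100%.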

C=CC(=O)Nc1cc(Nc2nccc(-c3cn(C)c4ccccc34)n2)c(OC)cc1N(C)CCN(C)C + C=CC(=O)N1CCN(c2nc(OCC3CCCN3C)nc3c(F)c(-c4nc(N)cc(C)c4C(F)(F)F)c(Cl)cc23)C(C)C1
> 1000 nM: IC50 (second compound 0.00316 µM) | IC50 (second compound 0.01 µM) | IC50 (second compound 0.0316 µM) | IC50 (second compound 0.1 µM) | IC50 (second compound 0.316 µM) | IC50 (second compound 1 µM)
inactive: viability, T/C (second compound 0.00316 µM, first compound 0.00316 µM) 101% | viability, T/C (second compound 0.00316 µM, first compound 0.01 µM) 111% | viability, T/C (second compound 0.00316 µM, first compound 0.0316 µM) 102% | viability, T/C (second compound 0.00316 µM, first compound 0.1 µM) 100% | viability, T/C (second compound 0.00316 µM, first compound 0.316 µM) 81.6% | viability, T/C (second compound 0.00316 µM, first compound 1 µM) 75.6% | viability, T/C (second compound 0.01 µM, first compound 0.00316 µM) 94.8% | viability, T/C (second compound 0.01 µM, first compound 0.01 µM) 102% | viability, T/C (second compound 0.01 µM, first compound 0.0316 µM) 109% | viability, T/C (second compound 0.01 µM, first compound 0.1 µM) 104% | viability, T/C (second compound 0.01 µM, first compound 0.316 µM) 96.7% | viability, T/C (second compound 0.01 µM, first compound 1 µM) 67.8% | viability, T/C (second compound 0.0316 µM, first compound 0.00316 µM) 111% | viability, T/C (second compound 0.0316 µM, first compound 0.01 µM) 122% | viability, T/C (second compound 0.0316 µM, first compound 0.0316 µM) 104% | viability, T/C (second compound 0.0316 µM, first compound 0.1 µM) 99.7% | viability, T/C (second compound 0.0316 µM, first compound 0.316 µM) 74.8% | viability, T/C (second compound 0.0316 µM, first compound 1 µM) 73.9% | viability, T/C (second compound 0.1 µM, first compound 0.00316 µM) 95.7% | viability, T/C (second compound 0.1 µM, first compound 0.01 µM) 94.2% | viability, T/C (second compound 0.1 µM, first compound 0.0316 µM) 98.7% | viability, T/C (second compound 0.1 µM, first compound 0.1 µM) 104% | viability, T/C (second compound 0.1 µM, first compound 0.316 µM) 90.9% | viability, T/C (second compound 0.1 µM, first compound 1 µM) 52.5% | viability, T/C (second compound 0.316 µM, first compound 0.00316 µM) 110% | viability, T/C (second compound 0.316 µM, first compound 0.01 µM) 102% | viability, T/C (second compound 0.316 µM, first compound 0.0316 µM) 90.8% | viability, T/C (second compound 0.316 µM, first compound 0.1 µM) 101% | viability, T/C (second compound 0.316 µM, first compound 0.316 µM) 84.7% | viability, T/C (second compound 0.316 µM, first compound 1 µM) 66.9% | viability, T/C (second compound 1 µM, first compound 0.00316 µM) 113% | viability, T/C (second compound 1 µM, first compound 0.01 µM) 99.6% | viability, T/C (second compound 1 µM, first compound 0.0316 µM) 100% | viability, T/C (second compound 1 µM, first compound 0.1 µM) 81% | viability, T/C (second compound 1 µM, first compound 0.316 µM) 75.5% | viability, T/C (second compound 1 µM, first compound 1 µM) 57.9%

Nc1ccn(C2OC(CO)C(O)C2(F)F)c(=O)n1 (centres undefined) + CCn1c(-c2cccnc2C(C)OC)c2c3cc(ccc31)N1CCOC(CC(NC(=O)C(C(C)C)N(C)C(=O)C3(F)CCN(C(=O)C#CC(C)(C)N(C)C)CC3)C(=O)N3CCCC(N3)C(=O)OCC(C)(C)C2)C1
16.8 nM: IC50 (second compound 0.03 µM)
14.1 nM: IC50 (second compound 0.0949 µM)
18.4 nM: IC50 (second compound 0.003 µM)
active: viability, T/C (second compound 0.000949 µM, first compound 0.1 µM) 7.41% | viability, T/C (second compound 0.000949 µM, first compound 0.316 µM) 10.3% | viability, T/C (second compound 0.000949 µM, first compound 1 µM) 9.82% | viability, T/C (second compound 0.003 µM, first compound 0.1 µM) 7.59% | viability, T/C (second compound 0.003 µM, first compound 0.316 µM) 8.56% | viability, T/C (second compound 0.003 µM, first compound 1 µM) 11.9% | viability, T/C (second compound 0.03 µM, first compound 0.1 µM) 8.42% | viability, T/C (second compound 0.03 µM, first compound 0.316 µM) 8.07% | viability, T/C (second compound 0.03 µM, first compound 1 µM) 6.73% | viability, T/C (second compound 0.0949 µM, first compound 0.0316 µM) 9.91% | viability, T/C (second compound 0.0949 µM, first compound 0.1 µM) 4.39% | viability, T/C (second compound 0.0949 µM, first compound 0.316 µM) 7.38% | viability, T/C (second compound 0.0949 µM, first compound 1 µM) 6.23% | viability, T/C (second compound 0.3 µM, first compound 0.0316 µM) 8.51% | viability, T/C (second compound 0.3 µM, first compound 0.1 µM) 3.06% | viability, T/C (second compound 0.3 µM, first compound 0.316 µM) 4.98% | viability, T/C (second compound 0.3 µM, first compound 1 µM) 5.37%
15.6 nM: IC50 (second compound 0.00949 µM)
12 nM: IC50 (second compound 0.3 µM)
16.7 nM: IC50 (second compound 0.000949 µM)
inactive: viability, T/C (second compound 0.000949 µM, first compound 0.00316 µM) 76.9% | viability, T/C (second compound 0.000949 µM, first compound 0.01 µM) 79.7% | viability, T/C (second compound 0.000949 µM, first compound 0.0316 µM) 15% | viability, T/C (second compound 0.003 µM, first compound 0.00316 µM) 91.1% | viability, T/C (second compound 0.003 µM, first compound 0.01 µM) 87.6% | viability, T/C (second compound 0.003 µM, first compound 0.0316 µM) 16.5% | viability, T/C (second compound 0.00949 µM, first compound 0.00316 µM) 87.6% | viability, T/C (second compound 0.00949 µM, first compound 0.01 µM) 72.9% | viability, T/C (second compound 0.00949 µM, first compound 0.0316 µM) 13.3% | viability, T/C (second compound 0.00949 µM, first compound 0.1 µM) 9.05% | viability, T/C (second compound 0.00949 µM, first compound 0.316 µM) 9.37% | viability, T/C (second compound 0.00949 µM, first compound 1 µM) 12.1% | viability, T/C (second compound 0.03 µM, first compound 0.00316 µM) 91.4% | viability, T/C (second compound 0.03 µM, first compound 0.01 µM) 79.9% | viability, T/C (second compound 0.03 µM, first compound 0.0316 µM) 13.5% | viability, T/C (second compound 0.0949 µM, first compound 0.00316 µM) 87.8% | viability, T/C (second compound 0.0949 µM, first compound 0.01 µM) 66.9% | viability, T/C (second compound 0.3 µM, first compound 0.00316 µM) 71.7% | viability, T/C (second compound 0.3 µM, first compound 0.01 µM) 58%
